Measurements: patent US20030219476A1, “Liposomal formulation of mitoxantrone” (priority 2000, published 2003)
Entries after “also recorded” stand apart in the source; their conditions may differ. Where a name gives a salt, the structure may show the parent alone. Read-outs that look alike come from different tables or passages of the source.

Columns and labels:
beagle dogs = test: Repeated-dose i.v. toxicity in beagle dogs (Example 18)
Protocol: Conventional mitoxantrone was administered to beagle dogs (3/sex/group) at i.v. dosages of 0 (saline), 0.129 or 0.258 mg/kg (2.6 or 5 mg/m^2) on Days 1, 23, 43 and 65. […] Evaluations for compound-related effects were based on clinical observations, body weight, food consumption, ophthalmologic and ECG examination, clinical pathology, plasma drug concentrations, organ weights and gross and microscopic postmortem examinations.

in vivo [1] = conditions: male, CD2F1, mouse, plasma, iv, 5 mg/kg
Protocol: Plasma and tissue samples were analyzed for mitoxantrone by reverse phase HPLC. Plasma samples (0.25 ml) were mixed with 0.5 ml of solution of 0.01 mg/ml hexanesulfonic acid, 0.5 mg/ml ascorbic acid, and 0.25 μg ametantrone as internal standard. After vortexing for 30 sec., 0.5 ml of 0.1 M borate buffer (pH 9.5) and 150 μl of 1 M sodium hydroxide was added and the solution vortexed again for 30 sec. […] The organic layer (9 ml) was separated and evaporated under nitrogen. Samples were reconstituted with 10 μl of mobile phase prior to HPLC analysis. Tissue samples were homogenized in 1 ml of solution containing 20% ascorbic acid in 0.1 M citrate buffer, pH 3.0, and extracted as described above. Mitoxantrone was separated by reverse-phase chromatography (Waters μBondapak® C-18) using a mobile phase of 33% acetonitrile, and 67% 0.16 M ammonium formate buffer, pH 2.7 delivered at a flow rate of 1 ml/min. Mitoxantrone was detected at 600 nm. The limit of sensitivity was 10 ng/ml.
Plasma Pharmacokinetic parameters were assessed by standard methods. The elimination rate constant (K) was calculated from the linear regression analysis of plasma concentration-time curve. The area under the curve (AUC0→∞) was calculated using the linear trapezoidal method with extrapolation of the terminal phase to infinity (Clast/K), where Clast is the last measured concentration. Other parameters calculated were total body clearance (Cl) as Dose/AUC; volume of distribution (Varea)=Cl/K; elimination half-life (t1/2)=0.693/Karea.

male CD2F1 mice [2] = conditions: 25 mg/kg single i.v.
Protocol: Twenty male CD2F1 mice weighing 20-22 g were acclimated for 1 week and randomly separated into 4 groups of five animals each with 5 animals per cage. On day 0 all groups of animals were injected i.v. in the tail vein with the drug or vehicle control. The volumes administered were varied based on individual animal weights. Mouse weights were recorded for each mouse on alternate days following injection and observation for clinical illness were recorded at least daily.

male CD2F1 mice [3] = test system: male CD2F1 mice
Protocol: Eighty male CD2F1 mice weighing 20-22 g were acclimated for 1 week and randomly separated into 8 groups of ten animals each with 5 animals per cage. On day 0 all groups of animals were injected i.v. in the tail vein with the drug or vehicle control. The volumes administered were varied based on individual animal weights. Mouse weights were recorded for each mouse on alternate days following injection and observation for clinical illness were recorded at least daily.

[4] = test system: human hormone-refractory prostate tumor cells (PC-3)
Protocol: Male Balb/c, nu/nu, 6-8 week old mice were inoculated with 5×10^6 of human hormone-refractory prostate tumor cells (PC-3). Tumor growth was monitored twice a week until the tumor volumes were in the range of […]. Animals were then divided into groups and were treated by i.v. injection via the tail vein with conventional mitoxantrone at doses of 0.625, 1.25, 2.5, and 5 mg/kg once every other day for four days. Doses of mitoxantrone formulated in liposomes were 2.5, 5, 7.5, and 10 mg/kg. Control animals received either normal saline or blank liposomes. The median survival time was calculated and all surviving animals were sacrificed on Day 34.
In these experiments tumor volumes were measured once or twice a week by measuring the three major axes.

male CD2F1 mice [5] = test system: male CD2F1 mice; remark: listed apart in the source
Protocol: Thirty male CD2F1 mice weighing 20-22 g were acclimated for 1 week and randomly separated into 6 groups of five animals each with 5 animals per cage. On day 0 all groups of animals were injected i.v. in the tail vein with the drug or vehicle control and once daily thereafter for a period of 5 days. The volumes administered were varied based on individual animal weights. Mouse weights were determined for each mouse on alternate days following injection and observation for clinical illness were recorded at least daily.

male CD2F1 mice [6] = test system: male CD2F1 mice; remark: listed apart in the source
Protocol: Forty male CD2F1 mice weighing 20-22 g were acclimated for 1 week and randomly separated into 8 groups of five animals each with 5 animals per cage. On day 0 all groups of animals were injected i.v. in the tail vein with the drug or vehicle control and once daily thereafter for a period of 5 days. The volumes administered were varied based on individual animal weights. Mouse weights were recorded for each mouse on alternate days following injection and observations of clinical illness were recorded at least daily.

in vivo [7] = conditions: beagle, dog, plasma, iv, 0.26 mg/kg
Protocol: (§1) Time points analyzed were 0, 5 and 30 min and 1, 2, 4, 8 and 24 h after a single dose administration.

[8] = Plasma pharmacokinetics in dogs (Example 17)
Protocol: as §1

male CD2F1 mice [9] = test system: male CD2F1 mice; remark: listed apart in the source
Protocol: Seventy male CD2F1 mice weighing 20-22 g were acclimated for 1 week and randomly separated into 7 groups of ten animals each with 5 animals per cage. On day 0 all groups of animals were injected i.v. in the tail vein with the drug or vehicle control. The volumes administered were varied based on individual animal weights. Mouse weights were recorded for each mouse on alternate days following injection and observation for clinical illness were recorded at least daily.

L1210 leukemia cells = test: L1210 ascitic leukemia survival, single dose (Example 14); format: in vivo, mice
Protocol: Murine leukemia cells, L1210 leukemia cells were grown in the peritoneum of CD2F1 mice by three serial propagations (i.p.). Ascites developed within eight days of the last inoculation were used in the following experiments. Cytostatic activities of liposomal and conventional formulations of mitoxantrone against L1210 ascitic leukemia was determined. Animal group weights were determined three times a week and clinically morbid animals were humanely sacrificed. The surviving mice were observed daily for 60 days. Group survival times post i.v. treatment with single or multiple doses of the drug was indicative of the relative anti-tumor potencies of liposomal and conventional mitoxantrone.
Female CD2F1 mice were divided into eight groups of 10 animals and inoculated i.v. with 10,000 L1210 cells. Drug was administered twenty-four hours later. Conventional mitoxantrone was administered at doses of 5 and 10 mg/kg. […] Surviving animals were sacrificed on day 60 of the experiment. Blank liposomes equivalent to the 35, mg/kg dose and normal saline was also administered as controls.

[10] = conventional 5 mg/kg, liposomal 10 mg/kg, daily x5

O=C1c2c(O)ccc(O)c2C(=O)c2c(NCCNCCO)ccc(NCCNCCO)c21 [conventional mitoxantrone, mitoxantrone hydrochloride]
hematology (beagle dogs; 0.129 and 0.258 mg/kg, 4 to 10 days following each dose cycle, dose related): leukopenia and thrombocytopenia
ECG parameters (beagle dogs; any examination time): no changes in ECG parameters
food consumption (beagle dogs; any groups): no changes in food consumption
coagulation or clinical chemistry parameters (beagle dogs; any of the dosage groups): No changes
anemia (beagle dogs; conventional: all animals, liposomal: female dogs): Anemia did not occur
body weight (beagle dogs; conventional: males at 0.258 mg/kg, liposomal: all dose groups, Days 1, 23, 43, 65): lost weight
AUC (in vivo [1]): 0.14 µg·h/mL
Cmax (in vivo [1]): 0.41 µg/mL
Vd (in vivo [1]): 5.5 L/kg
clearance (in vivo [1]): 36 L/h/kg
half-life (in vivo [1]): 6.6 min
morbidity (male CD2F1 mice [2]): 100%
weight loss (male CD2F1 mice [3]; 10 mg/kg single i.v., by day 10, then gradual recovery): 20%
morbidity (male CD2F1 mice [3]; 15 mg/kg single i.v. dose): 100%
weight loss (male CD2F1 mice [3]; 15 mg/kg single i.v., by day 9/10): about 35%
ALT (male CD2F1 mice [3]; 15 mg/kg single i.v., day 10, hydrochloride): Clinically significant elevations in ALT; also recorded: significant increases in ALT
BUN (male CD2F1 mice [3]; 15 mg/kg single i.v., two mice): modest elevations in BUN
histopathology (male CD2F1 mice [3]; single i.v. dose, spleen and bone marrow): compound effects on hematopoietic and lymphoid tissues of the spleen and bone marrow
body weight course (remaining groups) (male CD2F1 mice [3]; single i.v., conventional 5 mg/kg, liposomal 5, 10, 15 mg/kg): gained weight steadily
survival by day 34 ([4]; 0.625 and 1.25 mg/kg i.v. once every other day): 100%
survival by day 34 ([4]; 2.5 and 5 mg/kg i.v. once every other day): no animals
toxicity in tumor-bearing mice ([4]; in vivo): Severe toxicity
lethality (mice tested) (male CD2F1 mice [5]; 5 mg/kg daily x5): 100%
progressive weight loss (male CD2F1 mice [5]; 5 mg/kg daily x5, by day 9): about 35%
acute liver injury (ALT, AST, bilirubin) (male CD2F1 mice [5]; by day 8, conventional 5 mg/kg/day vs liposomal 10 mg/kg/day): roughly equivalent acute liver injury
AST and ALT in moribund sacrificed animals (male CD2F1 mice [5]; [10]): marked elevations in AST and ALT
leukopenia in moribund animals (male CD2F1 mice [5]; [10]): marked leukopenia
mice with bilirubin concentration greater than in control mice (male CD2F1 mice [5]; [10]): 3 of the 4
clinical signs (male CD2F1 mice [5]; conventional 2.5, 5 mg/kg, liposomal 10 mg/kg, daily x5): ruffled fur and hunching behavior
tissue concentration, kidneys (5 mg/kg single i.v.): ~40 µg/g
tissue concentration, lungs (5 mg/kg single i.v.): approximately 20 μg/g
heart tissue concentration (5 mg/kg single i.v., 5 and 15 minutes): approximately 10 μg/g
heart concentration (peak) (5 mg/kg single i.v., 5 minutes): 11 µg/g
liver concentration after gradual decrease (5 mg/kg single i.v., end of time course): ~2 µg/g
liver concentration, initial (5 mg/kg single i.v., start of time course): approximately 19 μg/g
heart, lung and kidney concentrations, comparison of formulations (all time points, 5 mg/kg i.v.): higher
animals that died (male CD2F1 mice [6]; 5 and 7.5 mg/kg daily x5): all of the animals
progressive weight loss (male CD2F1 mice [6]; 5 and 7.5 mg/kg daily x5, by day 7): about 25%
hepatocellular vacuolar degeneration (male CD2F1 mice [6]; 5 or 7.5 mg/kg daily x5, several mice): Some hepatocellular vacuolar degeneration
leukopenia in moribund-sacrificed mice (male CD2F1 mice [6]; conventional 5, 7.5 mg/kg, liposomal 7.5 mg/kg, daily x5): marked, clinically significant, compound related leukopenia
clinical signs (male CD2F1 mice [6]; day 6, conventional 2.5, 5, 7.5 mg/kg, liposomal 7.5 mg/kg, daily x5): ruffled fur and hunching behavior
morbidity or mortality (male CD2F1 mice [6]; liposomal any dose (2.5-7.5 mg/kg), conventional […], daily x5): no morbidity or mortality
Cmax (in vivo [7]; female): 0.06 µg/mL
Cmax (in vivo [7]; male): 0.084 µg/mL
clearance (in vivo [7]; male): 5.34 L/h/kg
half-life (in vivo [7]; male): 21.6 min
V ([8]; 0.26 mg/kg i.v., male dogs, mean): 2.8 L/kg
time point at which plasma concentrations could not be measured ([8]; high dose (0.26 mg/kg)): 30 min
initial weight loss (male CD2F1 mice [9]; 10 mg/kg single i.v., gradual recovery): 13%
morbidity (male CD2F1 mice [9]; 25 mg/kg single i.v.): 100%
ALT activities (male CD2F1 mice [9]; day 3, one mouse each: conventional 25 mg/kg, liposomal 35 mg/kg): modest increases in ALT activities
median survival (L1210 leukemia cells; 5 mg/kg single i.v., 24 h after 10,000 L1210 cells i.v.): 12 days
animals alive at day 60 (L1210 leukemia cells; 10 mg/kg single i.v.): 2/10
median survival time (L1210 leukemia cells; 10 mg/kg single i.v.): 20 days
